Results: patent publication US5079257A, “Indoloquinone compounds” (priority 1986, dated 1992)
Values after ≈ are worked out from the molar mass of the structure shown. Read-outs that look alike come from different tables or passages of the source.

Columns and labels:
in vivo = assay: in vivo; parameters: species or system mice; conditions: mouse, IP, single dose, suspension in carboxymethyl cellulose (2%)
Description: The acute toxicity experiments were carried out with male C5 Black/Rij X CBA/Rij Fl hybrid mice at TNO, Rijswijk. The drugs were administrated IP as suspensions in carboxymethyl cellulose (2%) as a single dose at the first day.

L1210 cells [1] = assay: L1210 activity in clonogenic assay (TNO Rijswijk); type: cell-based; conditions: Mus musculus, L1210, 192 h, read-out: ID-50 L1210, clonogenic assay
Source text: The indoloquinones II (formula II) have been tested in respect of their cytotoxic activity against L1210 cells and R-1 cells (Rhabdomyosarcoma Cells) in a bioliquid assay at the department of oncology of the Free University of Amsterdam (Table I). In addition to this seven compounds (E.O. 1, E.O. 2, E.O. 4, E.O. 7, E.O. 9, E.O. 16 and E.O. 17) have been tested on L1210 activity in a clonogenic assay at TNO, Rijswijk. Further, the lowest active doses of the compounds E.O. 1, E.O. 2, E.O. 4 and E.O. 9 have been determined at TNO Rijswijk, according to the method described by Lamberts et al. [Oncology, 40, 301 (1983)]. (Table II). Eight indoloquinones (E.O. 1, E.O. 2, E.O. 4, E.O. 4A, E.O. 8, E.O. 9, E.O. 33 and E.O. 35) have been tested in a panel of five human tumour lines (TNO Rijswijk; Table III). From the latter group three indoloquinones (E.O. 1, E.O. 4 and E.O. 9) have been selected for a cytotoxicity study, involving five slowly growing human tumour lines (University of Freiburg; Table IV).
The L1210 clonogenic assay used was an improved variant of the method described earlier by H. MARTIN et al. [Cancer Chemother., Rep., 51 451 (1967)] and L. M. van Putten et al. [Cancer Treat. Rep., 60, 373 (1976)] for the growth into colonies of L1210 cells in a soft agar medium. From a suspension culture ~100 L1210 Cells (0.1 ml) were plated into […] culture dishes (Falcon), containing 1 ml of soft agar growth medium and the compound to be tested in appropriate concentrations. The soft agar growth medium consisted of Dulbecco medium supplemented with 15.8% horse serum, 60 μmol 2-mercapto-ethanol, 20 mg/ml L-asparagine and 0.3% bacto agar (Difco).
The culture dishes were incubated at 37° C. in an atmosphere of 1% CO2 in humidified air for 8 days. After this period of continuous drug exposure, colonies were counted and dose-effect curves were made.

[2] = in vitro and in mice; cited from earlier work
[3] = system: R-1 cells (Rhabdomyosarcoma Cells); assay: R-1 activity (bioliquid assay), cytotoxicity; type: cell-based; conditions: Rhabdomyosarcoma cell
Procedure, shortened: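 Rhabdomyosarcoma R-1 cells (~10^6 per dish) in Dulbecco's medium with 10% FCS were exposed to drug solution, which was then replaced by fresh medium. Cells were trypsinized after 48 hours and counted electronically.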

L1210 [4] = conditions: 3-6 mg/kg; Remers et al., J. Med. Chem. 26 16 (1983); cited from earlier work
[5] = system: T 24 cells; bladder carcinoma; assay: In vitro panel of human tumour lines (TNO): T 24; type: cell-based; conditions: about 72 hours; note: key: -: no inhibition of cell growth; +: total cell-kill
Description: (§1) Compounds E.O. 1, E.O. 2, E.O. 4, E.O. 4A, E.O. 8, E.O. 9, […], E.O. 33, and E.O. 35 were tested for their activity against five human tumour cell lines at the Radiobiological Institute TNO Rijswijk.
(§2) The new in vitro prescreen uses human tumour clones; it was set up by Dr. P. Lelieveld at TNO Rijswijk and comprises testing compounds in a bioliquid assay for their cytostatic activity against the following five human tumour lines:
(§3) After a continuous exposure to the drugs to be tested and to Adriamycin in `24 well tissue culture clusters, type 3524 (Costar)`, the remaining cells are fixed and stained. Using increasing drug concentrations the inhibiting concentration can be estimated qualitatively.
(§4) Cells: the human tumour cells are maintained in Dulbecco's medium supplemented with 10 percent foetal calf serum.
(§5) A, T and Z cell suspensions: 5·10^4 cells/ml
(§6) The cells were grafted into 16 mm wells for 48 hours (0.5 ml cell suspension per well was used).
(§7) Drugs: the compound to be tested was dissolved in appropriate concentrations in a mixture of Hepes-buffered Hanks' balanced salt solution and ethanol. The drug solutions (0.05 ml) were added to the different wells. The final ethanol concentration in each well was less than one percent.
(§8) The cells were continuously incubated with the compound under test at 37° in an atmosphere of 10 percent CO2 in humidified air for about 72 hours.
(§9) Determination of the inhibiting dose: the cells were fixed and stained with a solution of crystal violet in methanol/formaldehyde.

L1210 [6] = assay: In vivo L1210 experiments (TNO Rijswijk); parameters: species or system mice
Description: The in vivo L1210 experiments were carried out in male Balb/c X DBA.2 Fl hybrid mice at TNO, Rijswijk.
In these experiments also, the drugs were administered IP as suspensions in carboxymethyl cellulose […] as a single dose at the first day.

IgR37 cells melanoma = assay: In vitro panel of human tumour lines (TNO): IgR-37; type: cell-based; conditions: about 72 hours; note: key: -: no inhibition of cell growth; +: total cell-kill
Description: as §1, §2, §3, §4, §5, §6, §7, §8, §9

L1210 cells [7] = assay: L1210 activity (bioliquid assay), cytotoxicity; type: cell-based; conditions: Mus musculus
Procedure, shortened: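 Suspension culture in RPMI with 15% FCS and 2-mercaptoethanol (60 μmol). Continuous compound exposure for 48 hours at 37° C under 5% CO2 in humidified air. Cell numbers then counted on an electronic microcell counter.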

Ovarian (MRI-H-207) line = type: in vivo, human; conditions: 5 mg/kg, days of treatment 0.7
Source text: The xenograft experiments have been carried by Dr. H. H. Fiebig of the University of Freiburg [Lung-NSCLC (LXGF) line, Renal line, Breast line; See: H. H. Fiebig et al., Behring Inst. Mitt., 74 343] and by Dr. E. Boven of the Free University Hospital Amsterdam [Ovarian (MRI-H-207) line; See: E. Boven et al., Cancer Res., 45, 86 (1985) and E. Boven et al., Eur. J. Clin. Oncol., 21, 1253 (1985)].
Mice: C57B1 athymic (nu/nu) female mice, 8 to 10 weeks of age were used for s.c. bilateral implantation of tumour fragments 2 mm diameter.
Treatment: E.O. 9 was dissolved in saline at a concentration of 0.5 mg/ml prior to administration. Drug doses and schedules were derived from studies in experimental murine tumour systems and from orientation studies in non-tumour-bearing nude mice. Treatment was started i.v. when tumours measured 50-150 mm^3. After randomization a group of 6-7 tumour-bearing mice was treated and a group of 5-6 tumour-bearing mice served as control.
Evaluation of efficacy: Tumours were measured twice weekly in three dimensions. Efficacy was expressed as the mean of relative tumour volume in treated animals vs. that in control animals×100 (% T/C). The optimal value was calculated within 35 days after the last injection. Toxic death (dead mice within two weeks after the last injection) were excluded from the evaluation.
MRI-H-207: An undifferentiated adenocarcinoma kindly provided by Dr. A. E. Bogden, Worcester, Mass, with a doubling time of 3-5 days.

[8] = system: A 204 cells; rhabdomyosarcoma; assay: In vitro panel of human tumour lines (TNO): A 204; type: cell-based; conditions: about 72 hours; note: key: -: no inhibition of cell growth; +: total cell-kill
Description: as §1, §2, §3, §4, §5, §6, §7, §8, §9

MCF7 breast cancer cells = assay: In vitro panel of human tumour lines (TNO): MCF-7; type: cell-based; conditions: about 72 hours; note: key: -: no inhibition of cell growth; +: total cell-kill
Description: as §1, §2, §3, §4
(§10) M and W cell suspensions: 10^5 cells/ml.
as §6, §7, §8, §9

WiDr cells; colon tumour = assay: In vitro panel of human tumour lines (TNO): WiDr; type: cell-based; conditions: about 72 hours; note: key: -: no inhibition of cell growth; +: total cell-kill
Description: as §1, §2, §3, §4, §10, §6, §7, §8, §9

[9] = system: supercoiled covalently closed circular (CCC) DNA; conditions: reducing agent, presence of oxygen; cited from earlier work
[10] = system: breast, pancreatic and prostatic adenocarcinomas, colon, bladder, lung and gastro-intestinal cancer; conditions: cited from earlier work
DNA = conditions: cited from earlier work
[11] = Cytotoxic activity (test not specified); type: cell-based
[12] = Half-wave reduction potentials / polarography (University of Utrecht); type: physicochemical
Source text: *The halve wave reduction potentials (E1/2) have been determined at the
Pharmaceutical Laboratory of University of Utrecht. Only the first
(quinone) reduction potential has been given.
Additional evidence for the occurrence of a bioreductive activation mechanism during the cytotoxic action of indoloquinones (II) was obtained via electrochemical studies, which have been carried out at the Pharmaceutical Laboratory of the University of Utrecht. […]

[13] = 8 days continuous exposure, TNO Rijswijk

## CCCCn1c(/C=C/CO)c(CO)c2c1C(=O)C=C(N1CC1)C2=O [E.O. 17, 5-Aziridino-3-hydroxymethyl-1-butyl-2-[1H-indole-4,7-dione]prop-β-en-αol]
In vivo
  LD50: 50 to 80 mg/kg
L1210 cells [1]
  IC50: 0.3 µg/mL (≈ 0.908 µM)

## COC1=C(C)C(=O)c2c(c(COC(N)=O)c3n2CCC3)C1=O [7-methoxymitosene]
[2]
  antibacterial activity: important antibacterial activity in vitro and in mice

## CO[C@@]12[C@H](COC(N)=O)C3=C(C(=O)C(C)=C(N)C3=O)N1C[C@@H]1N[C@@H]12 [MMC, mitomycin C, reference compound]
[3]; Table VIII, read-out: ID-50 R-1
  IC50: 0.03 µg/mL (≈ 0.0897 µM)
L1210 [4]
  max. effect (% T/C): 124-153%
[5]; 0.01 μg/ml
  in vitro activity score, T 24: -
[5]; 10 μg/ml
  in vitro activity score, T 24: +
L1210 [6]; Mus musculus, L1210, 4 mg/kg IP single dose, read-out: % T/C
  response vs control in vivo at 4 mg/kg: 200%
L1210 [6]; Mus musculus, L1210, 5 mg/kg IP single dose, read-out: % T/C
  response vs control in vivo at 5 mg/kg: 175%
L1210 [6]; Mus musculus, L1210, 6 mg/kg IP single dose, read-out: % T/C
  response vs control in vivo at 6 mg/kg: 175%
IgR37 cells melanoma; 0.01 μg/ml
  in vitro activity score, IgR-37: -
IgR37 cells melanoma; 1.0 μg/ml
  in vitro activity score, IgR-37: +
IgR37 cells melanoma; 10 μg/ml
  in vitro activity score, IgR-37: +
L1210 cells [7]; L1210, 48 h, Table VIII, read-out: ID-50 L1210
  IC50: 0.05 µg/mL (≈ 0.15 µM)
Ovarian (MRI-H-207) line
  toxic deaths: 1/7
[8]; 0.01 μg/ml
  in vitro activity score, A 204: -
[8]; 1.0 μg/ml
  in vitro activity score, A 204: +
[8]; 10 μg/ml
  in vitro activity score, A 204: +
MCF7 breast cancer cells; 0.01 μg/ml
  in vitro activity score, MCF-7: -
MCF7 breast cancer cells; 0.1 μg/ml
  in vitro activity score, MCF-7: -
MCF7 breast cancer cells; 10 μg/ml
  in vitro activity score, MCF-7: +
WiDr cells; colon tumour; 0.01 μg/ml
  in vitro activity score, WiDr: -
WiDr cells; colon tumour; 0.1 μg/ml
  in vitro activity score, WiDr: -
WiDr cells; colon tumour; 10 μg/ml
  in vitro activity score, WiDr: +
[9]
  DNA strand breaks: produced single strand breaks
[10]
  antitumour activity: active against breast, pancreatic and prostatic adenocarcinomas, and notably against colon, bladder, lung and gastro-intestinal cancer
DNA
  DNA crosslinks: caused rapid DNA instrand crosslinks in a dose dependent fashion

## CCCCn1c(/C=C/CO)c(CO)c2c1C(=O)C=C(OC)C2=O [E.O. 16, 3-Hydroxymethyl-5-methoxy-1-butyl-2-[1H-indole-4,7-dione]prop-β-en-α-ol]
In vivo
  LD50: 80 mg/kg
L1210 [6]; Mus musculus, L1210, 80 mg/kg IP single dose, read-out: % T/C
  response vs control in vivo at 80 mg/kg: 89%
L1210 [6]; Mus musculus, L1210, 100 mg/kg IP single dose, read-out: % T/C
  response vs control in vivo at 100 mg/kg: 100%
L1210 cells [1]; [13]
  IC50: 0.9 µg/mL (≈ 2.82 µM)

## COC(=O)/C=C/c1c(C(=O)OC)c2c(n1C)C(=O)C=C(N1CC1)C2=O [E.O. 22, Methyl 5-aziridino-3-methoxycarbonyl-1-methyl-2-[1H-indole-4,7-dione]acrylate]
[3]; read-out: ID-50 R-1, Table IA, para-indoloquinone diesters
  IC50: 0.5 µg/mL (≈ 1.45 µM)
[5]; 0.01 μg/ml
  in vitro activity score, T 24: -
[5]; 0.1 μg/ml
  in vitro activity score, T 24: -
[5]; 1.0 μg/ml
  in vitro activity score, T 24: +
IgR37 cells melanoma; 0.01 μg/ml
  in vitro activity score, IgR-37: -
IgR37 cells melanoma; 0.1 μg/ml
  in vitro activity score, IgR-37: -
IgR37 cells melanoma; 1.0 μg/ml
  in vitro activity score, IgR-37: +
L1210 cells [7]; L1210, 48 h, read-out: ID-50 L1210, Table IA, para-indoloquinone diesters
  IC50: 0.01 µg/mL (≈ 0.029 µM)
[8]; 0.01 μg/ml
  in vitro activity score, A 204: -
[8]; 0.1 μg/ml
  in vitro activity score, A 204: -
[8]; 1.0 μg/ml
  in vitro activity score, A 204: +
MCF7 breast cancer cells; 0.01 μg/ml
  in vitro activity score, MCF-7: -
MCF7 breast cancer cells; 0.1 μg/ml
  in vitro activity score, MCF-7: -
WiDr cells; colon tumour; 0.01 μg/ml
  in vitro activity score, WiDr: -
WiDr cells; colon tumour; 0.1 μg/ml
  in vitro activity score, WiDr: -
[11]
  cytotoxic activities: high cytotoxic activities
[12]; Table IA, only the first (quinone) reduction potential
  E1/2, halve wave reduction potential: -179 mV

## COC1=CC(=O)c2c(c(CO)c(/C=C/CO)n2C)C1=O [E.O. 7, 3-Hydroxymethyl-5-methoxy-1-methyl-2-[1H-indole-4,7-dione]prop-β-en-α-ol]
[3]; Table I, bioliquid assay, read-out: ID-50 R-1
  IC50: 4.2 µg/mL (≈ 15.1 µM)
In vivo
  LD50: > 100 mg/kg
L1210 [6]; 250 mg/kg IP single dose
  % T/C: tox.
L1210 cells [7]; L1210, Table I, bioliquid assay, 48 hours, read-out: ID-50 L1210
  IC50: 0.5 µg/mL (≈ 1.8 µM)
L1210 cells [1]; [13]
  IC50: 2.2 µg/mL (≈ 7.93 µM)
[12]; DC-polarography
  direct current polarogram: a reduction wave representing the reversible reduction of the benzoquinone nucleus
[12]; pH = 8 vs Ag/AgCl
  half-wave potential E1.2, wave I: -367 mV
